From patent US20250362274A1, “SYSTEMS AND METHODS TO DETERMINE PARTITION COEFFICIENTS BETWEEN CRUDE OIL AND AN AQUEOUS PHASE” (Saudi Arabian Oil Company, priority 2024, published 2025)

Key:
[1] = Partition coefficient between crude oil and aqueous phase (microfluidic mixer, functionalized glass fiber separation tube, HPLC UV-Vis); format: physicochemical; conditions: tracer at 100 ppm, after mixing with crude oil and separation
Protocol: In step 2700, the partition coefficient is calculated using the measurement from step 2600 and the reference points and calibration curve from step 2100. The partition coefficient of a substance “A” is defined as
where [A]org is the concentration of substance A in the organic phase, and [A]aq is the concentration of substance A in the water phase, with equal volumes of organic and aqueous phases at equilibrium. The detection system 1300 and the calibration curve from the step 2100 can provide [A]aq. [A]total can be obtained from the step 2200 and [A]org can be calculated as [A]org=[A]total−[A]aq.
A partition coefficient detection system was constructed using a teardrop microfluidic mixer (micronit), a functionalized glass fiber packed capillary tube oil/water phase separator, and a 1D HPLC UV-Vis detector (Agilent, 1290 Infinity HPLC system).
To prepare the functionalized glass fiber packed capillary tube oil/water phase separator, a hydrophobic fiber filtration material was prepared by chemically functionalizing surfaces of glass wool. […] The washed glass wool was immersed in 20 mL Piranha solution (3:1 mixture of concentrated sulfuric acid and 30% hydrogen peroxide) for 30 mins, then the treated glass wool was removed from the Piranha solution and rinsed with DI water until the pH value of the water used for rinsing was near neutral pH (pH=7±1), as monitored by a pH meter. […]

[2] = Hansch, C. et al. (1995); cited from earlier work

partitioning behavior between crude oil and aqueous phase (FIG. 4) [1]	Compound	partition coefficient (log P), value from the literature [2]
did show partitioning behavior	OCc1ccc(Cl)cc1 [4-CBA, 4-chlorobenzyl alcohol]	1.96
did not show partitioning behavior	O=C(O)c1ccccc1F [2-fluorobenzoic acid]	
